Several values for one entry are separate records, joined by “and”; a condition that tells them apart may be missing. Identical values can stand only once. Like-named read-outs stand apart in the source and are kept apart here.
Assays:
SaSDH [1] = molecular target: T1, SaSDH (Staphylococcus aureus, UniProt Q6GGA5); assay: SaSDH kinetic parameters for substrates; type: biochemical, methicillin-resistant S. aureus; details: substrate of SaSDH; for Km: 25 °C, random bi-bi fit; for Vmax: saturating levels of both substrates; for Kd: read-out: Kia (dissociation constant)
T1 construct: 6His-tag (N); made in house; host or cells: E. coli BL21(DE3)pLysS
T1 sequence (Q6GGA5 1-268): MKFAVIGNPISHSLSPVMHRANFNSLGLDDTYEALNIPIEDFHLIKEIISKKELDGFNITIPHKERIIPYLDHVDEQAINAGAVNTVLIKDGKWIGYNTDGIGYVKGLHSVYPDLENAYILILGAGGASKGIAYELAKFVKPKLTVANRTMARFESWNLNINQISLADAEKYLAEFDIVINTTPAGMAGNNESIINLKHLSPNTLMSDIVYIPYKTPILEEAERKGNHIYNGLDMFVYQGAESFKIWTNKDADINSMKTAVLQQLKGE
Description: Data were fitted to several models of bi-substrate reactions, all of which were analyzed using SigmaPlot Enzyme Kinetics Module v1.3. […] These were used to derive the turnover number (Kcat) and Kcat/Km.
(§1) Enzyme activity was measured spectrophotometrically at 25 °C at 340 nm, following NADPH generation (ε = 6.19 × 10^3 M^−1 cm^−1). The reaction mixture contained buffer A plus 1 mM SHK, 1 mM NADP^+, and 50 ng of SaSDH.
The data were linearized by the double-reciprocal transformation of Lineweaver and Burk. […] The inversion of the data matrix allowed the determination of the dissociation constant for NADP^+.

SaSDH [2] = molecular target: T1, SaSDH; assay: SaSDH inhibition assays (single concentration and inhibition kinetics); type: biochemical; details: for inhibition at 200 µM: inhibition of SaSDH activity, compound at 200 µM; for IC50: i0.5 at 400 μM of substrate, 400 μM, 50% inhibition concentration; for Pattern (inhibition mechanism): Cornish-Bowden plot
Description: Once the model was built, a rigid body docking procedure for virtual screening with a library of small molecules was performed. Because the enzyme is absent in humans, we selected the substrate (SHK) binding site as the target for virtual screening (Figure 3A). From the one thousand small molecules studied, a database of 38,355 poses was generated. The one hundred molecules with the highest binding energies were selected, and the capacities of these molecules to inhibit SaSDH were assessed. Inhibition assays using a concentration of 200 µM of the latter molecules were performed.
In order to study the type of inhibition of compounds on SaSDH, pharmacological and kinetic parameters (i0.5, Kic and Kiu) were determined at various concentrations of these compounds, using SHK and NADP^+ respectively, as substrates. In Figure 4, the plots of reciprocal rate multiplied by the substrate concentrations (S/v) versus inhibitor concentration in the presence of SHK and NADP^+ are shown. The intercept of the extrapolated line on the [i] axis, that corresponds to each compound concentration, is ‒i0.5. This provided a single and accurate way of estimating i0.5, which is important if it is to be used to calculate the inhibition constant.
as §1
The data were fitted to equations for competitive, uncompetitive, non-competitive and mixed inhibition, respectively, using the kinetic module of SigmaPlot program v12.3. All experiments were repeated at least twice.
The 50% inhibition concentrations (i0.5) of compounds against SaSDH were determined and analyzed by fitting to [Equation (2)]. The inhibition mechanism and inhibition constant (Kic and Kiu) were studied by fitting the inhibition data to [Equation (3)]: [drawing 12] (2) [drawing 13] (3)
Kic is the inhibition constant derived from the intercepts, whereas Kiu is the constant derived from the slope of 1/i0.5 vs v/V plots.

[3] = Kic, substrate shikimate, inhibitor binding to the substrate site
[4] = Kiu, substrate NADP^+, inhibitor binding to enzyme-substrate complex

**Q.** How did the Kcat (SaSDH [1]) turn out when `NC(=O)c1ccc[n+]([C@@H]2O[C@H](COP(=O)([O-])OP(=O)(O)OC[C@H]3O[C@@H](n4cnc5c(N)ncnc54)[C@H](OP(=O)(O)O)[C@@H]3O)[C@@H](O)[C@H]2O)c1` [NADP^+] was run?
**A.** 146 s⁻¹ and 146.16 s⁻¹

**Q.** And the Km (SaSDH [1])?
**A.** 42.6 ± 9.9 µM

**Q.** What about the Vmax (SaSDH [1]) of the same molecule?
**A.** 251 µmol/min/mg and 251.41 ± 7.2 µmol/min/mg

**Q.** And the Kd (SaSDH [1])?
**A.** 21 µM

**Q.** Which inhibition at 200 µM (SaSDH [2]) does the source give for `CCCCC#Cc1ccc(C(=O)O)o1` [compound 637] here?
**A.** 29%

**Q.** `OCC1COc2ccccc2C1` (stereo not drawn) [compound 291] was tested. Which inhibition at 200 µM (SaSDH [2]) did it give?
**A.** 31%

**Q.** Which inhibition at 200 µM (SaSDH [2]) does the source give for `O=C(O)c1ccc(CN2CCOCC2)cc1` [compound 306] here?
**A.** 31%

**Q.** Which Ki (SaSDH [2]; [3]) does the source give for `O=C(O)c1ccc(-c2cccs2)s1` [compound 238, 2,2'-bithiophene-5-carboxylic acid] here?
**A.** 9.53 µM

**Q.** What about the Ki (SaSDH [2]; [4]) of the same molecule?
**A.** 48.3 µM

**Q.** And the IC50 (SaSDH [2]; substrate NADP^+)?
**A.** 108 µM

**Q.** And the IC50 (SaSDH [2]; substrate shikimate)?
**A.** 123 µM

**Q.** And the inhibition at 200 µM (SaSDH [2])?
**A.** 87%

**Q.** What about the “Pattern (inhibition mechanism)” value (SaSDH [2]; with respect to NADP^+) of the same molecule?
**A.** Uncompetitive

**Q.** And the “Pattern (inhibition mechanism)” value (SaSDH [2]; with respect to shikimate)?
**A.** Competitive

**Q.** With `CN(C)CCOc1ccccc1CO` [compound 463] as the molecule, how does the inhibition at 200 µM (SaSDH [2]) read?
**A.** 45%

**Q.** With `COC(=O)c1sc2ccccc2c1O` [compound 62] as the molecule, how does the inhibition at 200 µM (SaSDH [2]) read?
**A.** 33%

**Q.** Which results are given for `O=C(O)C1=C[C@@H](O)[C@@H](O)[C@H](O)C1` [Shikimate, shikimate]?
**A.** Km (SaSDH [1]): 37.5 ± 3.7 µM; Vmax (SaSDH [1]): 233.6 ± 1.5 µmol/min/mg; Vmax (SaSDH [1]; listed as SHK): 233 µmol/min/mg; Kd (SaSDH [1]; listed as SHK): 21.2 µM; Kd (SaSDH [1]): 21.2 µM

**Q.** Which inhibition at 200 µM (SaSDH [2]) does the source give for `O=C(O)c1csc(-c2ccc(C(F)(F)F)cc2)n1` [compound 692] here?
**A.** 31%

**Q.** Which results are given for `Cc1c(O)ccc2c1OC(C)(C)CC2=O` [compound 766, 7-hydroxy-2,2,8-trimethyl-2,3-dihydro-4H-chromen-4-one]?
**A.** Ki (SaSDH [2]; [3]): 19.7 µM and 19.8 µM; Ki (SaSDH [2]; [4]): 11.3 µM; IC50 (SaSDH [2]; substrate NADP^+): 564 µM; IC50 (SaSDH [2]; substrate shikimate): 343 µM; inhibition at 200 µM (SaSDH [2]): 87%; Pattern (inhibition mechanism) (SaSDH [2]; with respect to NADP^+): Uncompetitive; Pattern (inhibition mechanism) (SaSDH [2]; with respect to shikimate): Competitive

**Q.** Which results are given for `O=C1COc2cc(O)ccc21` [compound 894, 6-hydroxy-2,3-dihydrobenzo[b]furan-3-one]?
**A.** Ki (SaSDH [2]; Kic, substrate NADP^+, inhibitor binding to the substrate site): 901 µM; Ki (SaSDH [2]; [3]): 58.3 µM; Ki (SaSDH [2]; [4]): 5.2 µM; Ki (SaSDH [2]; Kiu, substrate shikimate, inhibitor binding to enzyme-substrate complex): 1470 µM; IC50 (SaSDH [2]; substrate NADP^+): 614 µM; IC50 (SaSDH [2]; substrate shikimate): 143 µM; inhibition at 200 µM (SaSDH [2]): 99%; Pattern (inhibition mechanism) (SaSDH [2]; with respect to NADP^+): Mixed-uncompetitive; Pattern (inhibition mechanism) (SaSDH [2]; with respect to shikimate): Mixed-competitive

**Q.** For `CN(CCO)c1cc(C(F)(F)F)nc2ccccc12` [compound 626], which inhibition at 200 µM (SaSDH [2]) is on record?
**A.** 49%

Source: article PMC6270726 (Molecules, 2014)
